Entries after “also recorded” stand apart in the source; their conditions may differ.

One experiment has as its system BALB/cJ mice (H-2d). The experiment is described as follows: Immunization in mice followed by cytotoxicity (CTL) analysis, standard 4-h 51Cr release assay. The experiment is classed as in vivo. As for the experimental part: FIG. 1. Specific CTL response of BALB/cJ(H-2^d) mice after immunized with 7-mer peptied and gp96-7 mer peptide complex seven days. The lysis percentage of effector cells to specific target cells was measurated in a standard 4-h ^51Cr release assay. The lysis percent rate of the figure is the mean percentage of 10 mice.
BALB/cJ mice (H-2^d) 12-16 weeks old were used in this studies.
Sample was solubilized in 100 μl PBS and was injected subcutaneously in the neck back area of each mouse.
Therefore, we adopted the immunological manner of subcutaneous injection. The 7-mer peptide was dissolved in buffer (90% PBS, 10% DMSO/0.1% TFA) and gp96-7 mer peptide complex was dissolved in PBS buffer and then shaked severely for 1 minute before injection. For each mouse, the immunization dosage of 7-mer peptide was 0.2 nmol, 2 nmol and 20 nmol, respectively, the mice were immunized with peptide and Freund's after emulsion. The immunization dosage of gp96-7 mer peptide complex was 0.01 nmol, 0.05 nmol, 0.10 nmol and 0.50 nmol, respectively, the mice were immunized with subcutaneous injection in neck back area, and the second enhanced immunization was performed after one week from the first immunization, then cytotoxicity analysis was performed after 7 days. Each treatment group consisted of 10 mice. […]

Experiment [1] addresses T1, gp96 protein purified from human liver tissues (human, UniProt P14625 22-803).
T1 construct: Native protein from tissue, over 95% purity; also called purified gp96 protein
Description: non-covalently bound peptides eluted with TFA from gp96 purified from HBV-infected liver cancer tissues, HPLC peak, MALDI-TOF, microsequencing.

T1 sequence (P14625 22-803 limits assumed): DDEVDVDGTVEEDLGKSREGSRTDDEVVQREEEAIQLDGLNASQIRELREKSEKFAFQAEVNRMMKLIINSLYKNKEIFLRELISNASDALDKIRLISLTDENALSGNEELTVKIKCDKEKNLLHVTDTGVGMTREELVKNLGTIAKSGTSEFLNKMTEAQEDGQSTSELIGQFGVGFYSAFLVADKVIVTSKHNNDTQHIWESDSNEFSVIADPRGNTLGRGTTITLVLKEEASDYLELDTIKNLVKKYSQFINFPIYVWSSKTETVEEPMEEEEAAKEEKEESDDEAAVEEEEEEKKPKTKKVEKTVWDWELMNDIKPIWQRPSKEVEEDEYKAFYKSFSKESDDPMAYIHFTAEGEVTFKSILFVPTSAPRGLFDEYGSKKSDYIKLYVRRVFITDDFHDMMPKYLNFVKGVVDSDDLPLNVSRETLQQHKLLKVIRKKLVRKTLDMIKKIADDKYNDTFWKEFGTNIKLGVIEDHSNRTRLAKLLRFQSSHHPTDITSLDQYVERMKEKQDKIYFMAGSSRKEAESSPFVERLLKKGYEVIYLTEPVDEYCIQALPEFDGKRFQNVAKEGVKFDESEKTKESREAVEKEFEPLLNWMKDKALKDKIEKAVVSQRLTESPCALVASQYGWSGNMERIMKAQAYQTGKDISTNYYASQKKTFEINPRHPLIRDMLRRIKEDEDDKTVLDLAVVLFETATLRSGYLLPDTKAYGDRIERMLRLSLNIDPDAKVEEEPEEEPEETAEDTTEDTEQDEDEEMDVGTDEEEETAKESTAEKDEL

Consider “YVNTNMG [7-mer peptide, 7-mer peptide “YVNTNMG or YVNVNMG”, amino acid residues 88-94 of the core protein of HBV]”, for which the “effect of adjuvant on immunogenicity” value with BALB/cJ mice (H-2d) (Freund's incomplete adjuvant, Freund's complete adjuvant, chromium alum) is “can improve the immunological activity of it significantly”. For the same molecule, the “specific cytotoxic T lymphocyte (CTL) response in mice after immunization” value in the experiment with BALB/cJ mice (H-2d) (subcutaneous immunization, 51Cr release assay) was “can elicit the specific CTL response in mice; also recorded: can elicit the specific cytotoxic T lymphocytes in mice”.

B1: 7-mer peptide YVNTNMG (HBV core protein 88-94) (peptide)
peptide: YVNTNMG
notes: Eluted from tissue gp96 and also synthesized
On to B1, for which the binding result in experiment [1] is given as “binds”. YVNVNMG (Printed as the alternative to YVNTNMG) [7-mer peptide YVNVNMG (HBV core protein 88-94)]: the binding result in experiment [1] was “binds”.

The values above are taken from patent US7247712B2, “Complex of hepatitis B virus-specific antigenic peptides associated with heat shock proteins and the application thereof” (priority 2000, dated 2007).
